Reference: patent publication US10449348B2, “Devices and methods for enhancing the topical application of a benefit agent” (Johnson & Johnson Consumer Inc., priority 2015, dated 2019)

Assay: In vitro skin permeation study, Franz diffusion cell, passive diffusion or sonophoresis
Type: in vitro ADME, human
Source text: The experimental setup to run sonophoresis (ultrasound) studies with Franz cell diffusion cells consisted of a custom-built universal generator capable of driving ultrasonic transducers in the 20 kHz-2 MHz range with electronic power up to 60 W (Voltage+/−30V, Current: 2 A, duty cycle 50%) with a square waveform. The real power delivered to the transducer depended on the specific experimental conditions and is specified for each experiment. The driving waveform was delivered to the transducer through a coaxial cable having a BNC connector at one end and a custom non-coaxial connector at the transducer end.
The transducer was piezoelectric and had either a disk shaped form (either 20 or 25 mm in diameter) or a rectangular shape 10×20 mm^2). The thickness of the transducer depended on its fundamental frequency being inversely proportional with it. In order to prevent the liquid or the gel from perturbing the electrical connection, each transducer was encapsulated in a plastic case leaving only one side of the transducer exposed to the topical composition. The case was made out of a rigid plastic and the transducers were sealed with silicone adhesive to enable them to oscilalte more or less freely. The case also enabled the electrical connections to be isolated from the topical composition.
For sonophoresis experiments where the ultrasonic wave energy was delivered perpendicular to the skin, disk-shaped transducers were used in the encapsulation setup described above. For the angled ultrasound application the case encapsulating the ultrasonic transducer was assembled in a hinged configuration, enabling angles between 15 and 90 degrees (perpendicular). Note: an angle of 0 degrees would send the ultrasonic wave parallel with the skin surface.
In vitro skin permeation studies on 5% Ibuprofen gel compositions without ultrasound (passive diffusion), or facilitated by the application of ultrasound (sonophoresis), through human cadaver skin were performed as follows:
A skin penetration study evaluated the penetration of ibuprofen through the human skin for the inventive sample prepared as disclosed in Example 1. A commercial ibuprofen gel product, IBULEVE Ibuprofen Gel (by DDD ltd, Watford, Herts, WD18 7JJ, UK) was used as a benchmark, which contains 5% W/W ibuprofen, also IMS (Industrial Methylated Spirits), carbomer, propylene glycol, diethylamine and purified water according to the product label on its package. A well-known Franz diffusion cell method (taught in US20020006418 A1 which is hereby incorporated by reference) was used. […] A magnetic stirrer bar was added in the […]. The liquid receptor was filled with Phosphate-buffered saline (PBS) solution. Air bubbles in the […] were removed. The system was thermostated at 37° C. above a magnetic stirrer to ensure the homogeneity of the liquid receptor during the experiment. A human cadaver skin sample from a commercial tissue bank (Ohio Valley Tissue and Skin Center, Cincinnati, Ohio, dermatomed to approximately 0.4 mm) was cut to fit the glass diffusion cell and the skin was mounted on the Franz cell.
For the diffusion cells designated to be tested for passive diffusion, a test gel sample of 0.2 ml was applied on the skin surface. For the diffusion cells designated to test for sonophoresis, additional test sample (2-5 ml) was added in order to assure the entire, or at least a large portion, of the ultrasonic transducer tip was immersed by the test gel during the ultrasound treatment. The excess gel was promptly removed from the donor cell after the ultrasound treatment so that the remaining test gel was approximately 0.2 ml.
Ultrasound treatments were carried out with the following test conditions: • a) Conventional ultrasound treatment with 90 degree angle (°) between the ultrasound direction and the skin surface; • b) Angled Ultrasound treatment with less than 90 degree angle between the ultrasound direction and the skin surface. […]

Question: Which results are given for `CC(C)Cc1ccc(C(C)C(=O)O)cc1` (stereo not shown) [ibuprofen]?
Answer: permeation enhancement factor (15 degree UT sonophoresis vs without ultrasound, 6th hour): approximately 3.0 fold; permeation enhancement factor (15 degree UT sonophoresis vs without ultrasound, 24th hour): approximately 3.0 fold; ibuprofen permeation through the human skin versus no ultrasound (15 degree ultrasound treatment): significantly enhanced; ibuprofen permeation through the human skin versus no ultrasound (45 degree angled sonophoresis): significantly enhanced; permeation enhancement factor (60 degree UT sonophoresis vs without ultrasound, 6th hour): approximately 2.9 fold; permeation enhancement factor (60 degree UT sonophoresis vs without ultrasound, 24th hour): ~2.0 fold; ibuprofen permeation through the human skin versus no ultrasound (60 degree angled sonophoresis): significantly enhanced; permeation enhancement factor (90 degree UT sonophoresis vs without ultrasound, 6th hour): approximately 2.3 fold; permeation enhancement factor (90 degree UT sonophoresis vs without ultrasound, 24th hour): ~2.0 fold; ibuprofen permeation through the human skin versus no ultrasound (90 degree ultrasound treatment): significantly enhanced
